In paper PMC9785492 (Viruses, 2022):
Read-outs that look alike come from different tables or passages of the source.

Experiments:
[1] = tested on: caveolin-mediated endocytosis in A549 cells; assay type: cell-based, human
[2] = tested on: influenza A virus (A/Puerto Rico/8/34); details: for IC50: read-out: IC50, Inhibition of A/Puerto Rico/8/34 Infection, MDCK cells, 100 TCID50, MTT-based, 48 h post-infection
Cytotoxicity MTT assay = details: dog, MDCK cells
[3] = tested on: clathrin-mediated endocytosis in A549 cells; assay: Fluorescence confocal assay, Tf-568 uptake; assay type: cell-based, human; details: 20 μM, 3 h pre-treatment
[4] = tested on: H5N1 pseudovirus A/Hong Kong/156/1997; assay: organism not typed; assay type: cell-based, H5N1 IAV
[5] = tested on: IAV replication in A549 cells; assay type: cell-based; details: viral protein and gene
[6] = tested on: IAV proteins NP and PB2, NP mRNA; assay type: cell-based; details: MDCK cells
caveolin-1 = assay type: cell-based, human
A/FM-1/1/47 (H1N1) = assay: microbe, parasite or virus in culture; assay type: cell-based; details: Influenza A virus, H1N1, MDCK
[7] = tested on: influenza viral polymerase activity; assay type: cell-based, Influenza A virus
A/Aichi/2/68 (H3N2) = assay: microbe, parasite or virus in culture; assay type: cell-based; details: Influenza A virus, H3N2, MDCK
A/WSN/33 (H1N1) = assay: microbe, parasite or virus in culture; assay type: cell-based, Influenza A virus (H1N1); details: Influenza A virus, MDCK
[8] = tested on: H5N1 pseudovirus A/Xinjiang/1/2006; assay: organism not typed; assay type: cell-based, H5N1 IAV
[9] = tested on: clathrin-associated uptake of transferrin in A549 cells; assay: Transferrin absorption test; details: pretreated 3 h, transferrin 15 µg/mL 30 min, Western blotting
[10] = tested on: IAV-induced Ca2+ influx in A549 cells; assay: Intracellular Ca2+ level during IAV infection (BBcellProbeTMF3); assay type: cell-based, human; details: A/WSN/33
[11] = tested on: H5N1 pseudovirus A/Qinghai/59/2005; assay: organism not typed; assay type: cell-based, H5N1 IAV
[12] = tested on: H5N1 pseudovirus A/Anhui/1/2005; assay: organism not typed; assay type: cell-based, H5N1 IAV
[13] = tested on: vesicular stomatitis virus G (VSV-G) PsV; assay type: cell-based
[14] = tested on: influenza A virus (A/Puerto Rico/8/34); assay: microbe, parasite or virus in culture; details: MDCK, read-out: IC50, Inhibition of A/Puerto Rico/8/34 Infection
in vitro = details: dog

Question: For methyl-β-cyclodextrin [MβCD], which “CTB-FITC endocytosis (immunostaining)” value [1] is on record?
Answer: Its value is “less immunostaining”.

Question: Which “SI (CC50/ IC50)” value [2] does the source give for `COCCOC(=O)C1=C(C)NC(C)=C(C(=O)OC(C)C)C1c1cccc([N+](=O)[O-])c1` (centres unmarked) [Nimodipine] here?
Answer: The value was >15.58.

Question: What about the IC50 [2] of the same compound?
Answer: The IC50 was 12.8 ± 1.72 µM.

Question: What about the CC50 at 48 h (Cytotoxicity MTT assay) of the same compound?
Answer: Its CC50 at 48 h is > 200 µM.

Question: With `CCOC(=O)C1=C(C)NC(C)=C(C(=O)OC)C1c1cccc([N+](=O)[O-])c1` (centres unmarked) [Nitrendipine] as the compound, how does the “SI (CC50/ IC50)” value [2] read?
Answer: The value was 23.56.

Question: And the IC50 [2]?
Answer: The IC50 was 7.26 ± 1.89 µM.

Question: What about the CC50 at 48 h (Cytotoxicity MTT assay) of the same compound?
Answer: Its CC50 at 48 h is 171 ± 14.1 µM.

Question: With `COC(=O)C1=C(C)NC(C)=C(C(=O)OCC(C)C)C1c1ccccc1[N+](=O)[O-]` (centres unmarked) [Nisoldipine] as the compound, how does the “transferrin (Tf-568) uptake” value [3] read?
Answer: The value was “decreased”.

Question: And the IC50 [4]?
Answer: Its IC50 is 4.47 ± 0.47 µM.

Question: What about the “IAV replication in A549 cells” value [5] of the same compound?
Answer: Its value is “interfered with IAV replication”.

Question: And the “expression of IAV proteins NP and PB2” value ([6]; Western blotting, dose-dependent)?
Answer: The value was “significantly inhibited”.

Question: And the “NP mRNA expression” value ([6]; qRT-PCR)?
Answer: The value was “decreased”.

Question: What about the IC50 [2] of the same compound?
Answer: Its IC50 is 4.74 ± 0.76 µM.

Question: What about the “expression of caveolin-1” value (caveolin-1) of the same compound?
Answer: The value was “reduce the expression of caveolin-1”.

Question: And the CC50 at 48 h (Cytotoxicity MTT assay)?
Answer: The CC50 at 48 h was > 200 µM.

Question: What about the IC50 (A/FM-1/1/47 (H1N1)) of the same compound?
Answer: Its IC50 is 6.96 ± 0.78 µM.

Question: And the “influenza viral polymerase activity” value [7]?
Answer: The value was “did not affect”.

Question: What about the IC50 (A/Aichi/2/68 (H3N2)) of the same compound?
Answer: The IC50 was 5.68 ± 0.61 µM.

Question: What about the IC50 (A/WSN/33 (H1N1)) of the same compound?
Answer: Its IC50 is 4.47 ± 0.25 µM.

Question: What about the IC50 [8] of the same compound?
Answer: Its IC50 is 3.87 ± 0.51 µM.

Question: What about the internalization of transferrin [9] of the same compound?
Answer: The internalization of transferrin was “markedly reduced”.

Question: What about the “IAV-induced Ca2+ influx” value [10] of the same compound?
Answer: The value was “inhibited”.

Question: What about the IC50 [11] of the same compound?
Answer: The IC50 was 5.84 ± 0.64 µM.

Question: And the IC50 [12]?
Answer: Its IC50 is 2.59 ± 0.46 µM.

Question: And the “CTB-FITC endocytosis (immunostaining)” value [1]?
Answer: Its value is “less immunostaining”.

Question: What about the “inhibition of VSV-G PsV infection” value [13] of the same compound?
Answer: The value was “much less efficiency”.

Question: With `CC(=O)N[C@H]1[C@H]([C@H](O)[C@H](O)CO)OC(C(=O)O)=C[C@@H]1N=C(N)N` [Zanamivir] as the compound, how does the “SI (CC50/ IC50)” value [2] read?
Answer: Its value is >158.73.

Question: And the CC50 at 48 h (Cytotoxicity MTT assay)?
Answer: The CC50 at 48 h was > 0.2 µM.

Question: And the IC50 [14]?
Answer: The IC50 was 0.00126 ± 0.0003 µM.

Question: Which “SI (CC50/ IC50)” value ([2]; A/Puerto Rico/8/34) does the source give for `COCCOC(=O)C1=C(C)NC(C)=C(C(=O)OC/C=C/c2ccccc2)C1c1cccc([N+](=O)[O-])c1` (centres unmarked) [Cilnidipine] here?
Answer: Its value is >14.02.

Question: What about the IC50 ([14]; 48 h) of the same compound?
Answer: The IC50 was 14.3 ± 2.66 µM.

Question: What about the CC50 at 48 h (in vitro) of the same compound?
Answer: Its CC50 at 48 h is > 200 µM.
